Data from patent US6310217A, “Acylpyrroledicarboxylic acids and acylindoledicarboxylic acids and their derivatives as inhibitors of cytosolic phospholipase A2” (Merckle GmbH, priority 1996, dated 2001).

Legend:
cytosolic PLA2 = target: T1, cytosolic PLA2 (Bos taurus, UniProt A4IFJ5); assay: Inhibition of cytosolic phospholipase A2 in intact bovine platelets stimulated with calcium ionophore A23187; released arachidonic acid determined by reversed phase HPLC with UV detection; type: cell-based; conditions: A23187 stimulation, 5,8,11,14-eicosatetraynoic acid added, test substances normally dissolved in DMSO
T1 construct: endogenous in cells; host or cells: intact bovine platelets
T1 sequence (A4IFJ5 1-749): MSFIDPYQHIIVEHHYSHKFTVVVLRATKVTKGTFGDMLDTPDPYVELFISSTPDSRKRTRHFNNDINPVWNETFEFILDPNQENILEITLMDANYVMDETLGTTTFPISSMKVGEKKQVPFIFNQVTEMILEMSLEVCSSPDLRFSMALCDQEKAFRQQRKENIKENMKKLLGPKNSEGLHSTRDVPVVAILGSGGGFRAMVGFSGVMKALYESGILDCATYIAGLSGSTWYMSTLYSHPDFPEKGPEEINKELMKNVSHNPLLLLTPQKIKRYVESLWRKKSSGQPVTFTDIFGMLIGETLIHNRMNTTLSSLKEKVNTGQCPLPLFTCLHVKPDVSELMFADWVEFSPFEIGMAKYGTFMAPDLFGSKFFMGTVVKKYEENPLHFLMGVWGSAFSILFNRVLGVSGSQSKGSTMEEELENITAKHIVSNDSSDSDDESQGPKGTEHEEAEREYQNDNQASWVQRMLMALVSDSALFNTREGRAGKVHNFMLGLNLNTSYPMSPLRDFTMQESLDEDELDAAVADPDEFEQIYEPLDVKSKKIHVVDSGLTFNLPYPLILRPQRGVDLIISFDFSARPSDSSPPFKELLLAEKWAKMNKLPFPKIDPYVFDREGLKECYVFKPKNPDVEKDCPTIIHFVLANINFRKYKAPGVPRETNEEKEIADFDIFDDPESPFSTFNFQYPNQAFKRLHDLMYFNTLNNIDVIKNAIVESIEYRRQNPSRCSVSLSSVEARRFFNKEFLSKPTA
Source text: The efficacy of the compounds according to the invention can be determined on the basis of the inhibition of phospholipase A2. For this purpose, the phospholipaase A2 in intact bovine platelets is stimulated with calcium ionophore A23187, and thus the release of arachidonic acid from the membrane phospholipids is induced. In order to prevent metabolism of the enzyme product arachidonic acid by the cyclooxygenase pathway and the 12-lipoxygenase pathway, in this case the dual cyclooxygenase/12-lipoxygenase inhibitor 5,8,11,14-eicosatetraynoic acid is added. After purification by solid phase extraction, the released arachidonic acid is determined by reversed phase HPLC with UV detection. The inhibition of the enzyme by a test substance is evident from the ratio between the amounts of arachidonic acid formed in the presence and in the absence of the test substance. Further details of the test system are to be found in Example 15.
The efficacy of the compounds according to the invention can be determined from the inhibition of phospholipase A2. The assay method used has already been described (see Lehr M., In-vitro assay for the evaluation of phospholipase A2 inhibitors using bovine platelets and HPLC with UV-detection. Pharm.Pharmacol. Lett. 1992, 2, 176-179). The test substances were normally dissolved in DMSO.

mice = conditions: cited from earlier work

| Compound | IC50 (cytosolic PLA2) | analgesic effect (mice) |
| --- | --- | --- |
| CCCCCCCCCCCC(=O)c1c(C)c(CC(=O)O)n(Cc2cccc(/C=C/C(=O)O)c2)c1C [Example 2, (E)-3-{[2-(Carboxymethyl)-4-dodecanoyl-3,5-dimethyl-pyrrol-1-yl]methyl}cinnamic acid] | 4600 nM |  |
| CCCCCCCCCCCC(=O)c1c(C(=O)O)n(CCOc2cccc(CC(=O)O)c2)c2ccccc12 [Example 13, 1-{2-[3-(carboxymethyl)phenoxy]ethyl}-3-dodecanoyl-indole-2-carboxylic acid] | 1600 nM |  |
| CCCCCCCCCCCC(=O)c1c(C)c(CC(=O)O)n(Cc2cccc(CCC(=O)O)c2)c1C [Example 3, 3-(3-{[2-(Carboxymethyl)-4-dodecanoyl-3,5-dimethyl-pyrrol-1-yl]methyl}phenyl)propionic acid] | 3000 nM |  |
| CCCCCCCCCCCC(=O)c1c(C(=O)O)n(CCOc2ccc(CC(=O)O)cc2)c2ccccc12 [Example 14, 1-{2-[4-(Carboxymethyl)phenoxy]ethyl}-3-dodecanoyl-indole-2-carboxylic acid] | 1600 nM |  |
| Cn1c(C(=O)O)ccc1C(=O)C=Cc1ccccc1 [1-methyl-5-(3-phenylacryloyl)pyrrol-2-ylformic acid] |  | analgesic effect |
